Measured values from patent publication US20130017265A1, “PARTICLES FOR MULTIPLE AGENT DELIVERY” (MASSACHUSETTS INSTITUTE OF TECHNOLOGY, priority 2009, published 2013).

Experiments:
[1] = tested on: PC3 cells; experiment: MTT cytotoxicity assay, PC3 cells; assay type: cell-based, human; conditions: for IC50: MTT, 12 hours treatment, further 48 hours, [Pt] = 25 * [Doce]
Method: (§1) The ability of the targeted drug releasing construct nanoparticles to promote cell death was determined using the MTT assay using human prostate cancer LNCaP and PC3 cells and compared against the standard compounds cisplatin and the Pt(IV)-monosuccinate prodrug. Human prostate cancer LNCaP and PC3 cells were obtained from the ATCC. […] The cells were incubated at 37° C. in 5% CO2 in RPMI growth medium supplemented with 10% fetal bovine serum and 1% penicillin/streptomycin. The cells were passaged every 3 to 4 days and restarted from the frozen stock upon reaching passage number 20. Cytotoxic activity of the constructs was evaluated using the MTT assay. Solutions of the different constructs were freshly prepared in sterile PBS before use. All platinum constructs were quantified by atomic absorption spectroscopy. LNCaP and PC3 cells were seeded on a 96-well plate in 100 μL RPMI media and incubated for 24 hours.
(§2) The cells were then treated with different constructs at varying concentrations and incubated for 12 hours at 37° C. Fresh medium was replaced after 12 hours incubation with nanoparticles, and the cells were incubated for a further 48 hours. The cells were then treated with 20 μL of 3-(4,5-dimethylthiazol-2-yl)-2,5-diphenyltetrazolium bromide (MTT) (5 mg/mL in PBS) and incubated for 5 hours. The medium was removed, the cells were lysed by adding 100 μL of DMSO, and the absorbance of the purple formazan was recorded at 550 nm using a microplate spectrophotometer. Each sample was assayed in triplicate in three independent experiments for each cell line.

[2] = tested on: LNCaP cells; experiment: MTT cytotoxicity assay, LNCaP cells; assay type: cell-based, human; conditions: for IC50: MTT, 12 hours treatment, further 48 hours, [Pt] = 25 * [Doce]
Method: as §1, §2

## N.N.[Cl][Pt][Cl] [Cisplatin]
[1]
  IC50: 9.9 µM
[2]
  IC50: > 5 µM

## c,c,t[Pt(NH3)Cl2(OH)(succinate)] [Pt-Monosuccinate]
[1]
  IC50: 36 µM
[1]; PC3 cells, compared with cisplatin, PolyPt-NP, PolyPt-NP-Apt
  effect on viability: least effect on viability
[2]; LNCaP cells, compared with cisplatin, PolyPt-NP, PolyPt-NP-Apt
  effect on viability: least effect on viability
[2]
  IC50: 106 µM
